Test results from patent US20150164895A1, “DETERMINING SENSITIVITY OF CELLS TO B-RAF INHIBITOR TREATMENT BY DETECTING KRAS MUTATION AND RTK EXPRESSION LEVELS” (GENENTECH, INC., priority 2009, published 2015).
Several values for one entry are separate records, joined by “and”; a condition that tells them apart may be missing. Identical values can stand only once.

What was measured:
lung tumor xenografts = experiment: Experiment H327: growth in lung tumor xenografts after dosing with B-RAF inhibitor; format: in vivo, mice; conditions: for Absolute body weight / Relative body weight / Survival time: individual animal; for Relative tumor volume / Absolute tumor volume: (a*b*b)/2: individual tumor
Excerpt: FIGS. 10-18 depict growth in lung tumor xenografts after dosing with GDC-0879.
The data are shown below, and in FIGS. 10-14 for Experiment H331 and FIGS. 15-18 for Experiment H327.

[1] = system: patient-derived melanoma and non-small cell lung cancer tumor models; experiment: Primary human tumor xenograft models, time to tumor doubling; format: in vivo, mice; conditions: 100 mg/kg daily
Experimental: FIG. 8A depicts the duration and extent of BRAF pathway inhibition determines B-Raf inhibitor, GDC-0879 efficacy in primary human tumor xenograft models. A Kaplan-Meier plot showing time to tumor doubling for patient-derived melanoma and non-small cell lung cancer tumor models treated daily with 100 mg/kg GDC-0879 or vehicle. Genotypes for BRAF, N-ras and K-ras are indicated.
The Ras GTPase family controls numerous downstream signaling cascades in response to signals that regulate cellular processes including proliferation and survival. While Ras is one of the most prevalent targets for gain-of-function mutations in human tumors, questions remain regarding how the Ras effector pathway functions in mutant K-ras-driven tumorigenesis. Since an important function of K-ras involves B-Raf activation within the canonical MAPK signaling pathway, we initiated a study to determine B-Raf's role in the context of mutant K-ras-driven tumor promotion and maintenance. […] See, FIG. 8A, showing time to tumor doubling.

B-Raf^V600E = B-Raf^V600E (Homo sapiens, UniProt P15056, V600E); conditions: physiological [ATP]
[2] = system: pMEK levels in non-B-Raf^V600E lines; experiment: pMEK levels / Raf/MEK/ERK pathway induction by Raf inhibitors; format: cell-based
[3] = system: ERK1/2 phosphorylation in BRAF^V600E primary human xenograft tumors; experiment: Pharmacodynamic ERK1/2 phosphorylation immunoblot in primary human xenograft tumors; format: in vivo, mice; conditions: 100 mg/kg, 1 or 8 h following the last dose (days 21-24)
Experimental: In time course pharmacodynamic studies, mice were treated with 100 mg/kg GDC-0879 and scarified at 1 or 8 h following the last dose (days 21-24). Immunoblots of phosphorylated and total ERK1/2 are shown. […] Total ERK1/2 expression was examined in all samples as a loading control.

[4] = system: Venus-C-RAF / CFP-K-RAS in HEK293T cells; experiment: C-RAF plasma membrane translocation, live cell confocal imaging; format: cell-based; parameters: dose or concentration left out as unconfirmed
Excerpt: Aliquots of the membrane and cytosolic fractions were immunoblotted with the indicated antibodies. (B) HEK293T cells were transiently transfected with Venus-C-RAF (green), CFP-K-RAS (red) and mCherry-H2B (blue).

[5] = system: phospho-MEK in B-RAF V600E mutant cell lines; experiment: Phospho-MEK MSD assay, basal and EGF-stimulated; format: cell-based; conditions: basal and EGF-stimulated (20 ng/ml EGF); compared with PLX4720
Experimental: (A) Cells were treated with […] compound in serum free media for 1 hour. For stimulation 20 ng/ml EGF was added for 5 min before cells were lysed. Lysates were transferred to an MSD plate where phospho- and total MEK levels were measured. […] Cells were dosed with indicated inhibitors, either alone or in combination in the presence of 20 ng/ml EGF in the media.

[6] = H327-2, LXFA 1041/9N4, 100 mg/kg/day po Days 0-20, study day 17, listed as G-026887
[7] = H327-2, LXFA 1041/9N4, 100 mg/kg/day po Days 0-20, study day 20, group median n 10
[8] = H327-2, LXFA 1041/9N4, 100 mg/kg/day po Days 0-20, study day 20, group median n 20
[9] = H327-2, LXFA 1041/9N4, 100 mg/kg/day po Days 0-20, study day 20, listed as G-026887
[10] = H327-5, LXFA 1041/9N4, 100 mg/kg/day po Day 0, study day 0, group median n 6
[11] = H327-5, LXFA 1041/9N4, 100 mg/kg/day po Day 0, study day 0, listed as G-026887
[12] = H327-6, LXFA 1041/9N4, 100 mg/kg/day po Day 0, study day 0, group median n 3
[13] = H327-6, LXFA 1041/9N4, 100 mg/kg/day po Day 0, study day 0, listed as G-026887

Chain of B-Raf^V600E (P15056 whole entry V600E): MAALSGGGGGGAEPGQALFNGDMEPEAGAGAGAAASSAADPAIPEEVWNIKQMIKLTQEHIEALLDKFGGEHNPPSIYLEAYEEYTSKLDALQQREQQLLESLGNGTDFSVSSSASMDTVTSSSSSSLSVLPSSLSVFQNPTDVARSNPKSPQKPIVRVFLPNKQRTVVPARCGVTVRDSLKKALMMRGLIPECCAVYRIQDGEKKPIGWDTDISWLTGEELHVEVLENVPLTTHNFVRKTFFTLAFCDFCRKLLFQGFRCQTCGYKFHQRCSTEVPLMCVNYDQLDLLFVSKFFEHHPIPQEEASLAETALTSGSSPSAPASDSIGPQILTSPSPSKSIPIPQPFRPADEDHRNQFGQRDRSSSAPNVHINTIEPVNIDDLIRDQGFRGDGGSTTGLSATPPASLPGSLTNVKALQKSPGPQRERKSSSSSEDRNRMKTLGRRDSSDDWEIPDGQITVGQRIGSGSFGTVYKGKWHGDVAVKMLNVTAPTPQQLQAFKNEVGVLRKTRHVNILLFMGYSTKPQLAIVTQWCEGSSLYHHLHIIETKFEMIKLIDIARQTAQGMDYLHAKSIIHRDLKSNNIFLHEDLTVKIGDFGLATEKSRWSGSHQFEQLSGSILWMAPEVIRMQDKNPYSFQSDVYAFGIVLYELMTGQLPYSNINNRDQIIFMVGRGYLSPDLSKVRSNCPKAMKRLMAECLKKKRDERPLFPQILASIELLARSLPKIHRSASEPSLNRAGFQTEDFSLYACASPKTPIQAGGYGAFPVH

OCCn1cc(-c2ccc3c(c2)CC/C3=N\O)c(-c2ccncc2)n1 [GDC-0879, 2-{4-[(1E)-1-(hydroxyimino)-2,3-dihydro-1H-inden-5-yl]-3-(pyridine-4-yl)-1H-pyrazol-1-yl}ethan-1-ol]
Relative tumor volume, Median (lung tumor xenografts; H327-2, LXFA 1041/9N4, 100 mg/kg/day po Days 0-20, study day 17, group median n 20): 900.4%
Absolute body weight (lung tumor xenografts; [6]): 24.8 g and 30.3 g and 25.1 g and 25.0 g and 24.7 g and 26.2 g and 31.9 g and 31.1 g and 26.4 g and 22.7 g
Relative body weight (lung tumor xenografts; [6]): 97.6% and 105.9% and 102.4% and 102.0% and 102.9% and 104.4% and 107.0% and 98.7% and 105.6% and 96.2%
Relative tumor volume (lung tumor xenografts; [6]): 1372.2% and 1073.6% and 869.4% and 770.2% and 1242.1% and 1093.2% and 1915.9% and 1727.1% and 932.7% and 931.4% and 937.2% and 831.6% and 856.0% and 746.4%
Absolute body weight, Median (lung tumor xenografts; [7]): 26.9 g
Relative body weight, Median (lung tumor xenografts; [7]): 108.0%
Absolute tumor volume: (a*b*b)/2, Median (lung tumor xenografts; [8]): 928.6 mm3
Relative tumor volume, Median (lung tumor xenografts; [8]): 1023.2%
Absolute body weight (lung tumor xenografts; [9]): 25.4 g and 31.4 g and 25.8 g and 26.3 g and 26.1 g and 28.3 g and 33.2 g and 32.4 g and 27.4 g and 23.1 g
Relative body weight (lung tumor xenografts; [9]): 100.0% and 109.8% and 105.3% and 107.3% and 108.8% and 112.7% and 111.4% and 102.9% and 109.6% and 97.9%
Relative tumor volume (lung tumor xenografts; [9]): 1795.5% and 1109.8% and 1056.9% and 872.2% and 1346.4% and 1155.4% and 2275.4% and 1830.4% and 1070.4% and 1264.0% and 971.2% and 860.0% and 980.4% and 989.5%
Absolute tumor volume: (a*b*b)/2 (lung tumor xenografts; H327-2, LXFA 1041/9N4 Lung, adeno, 100 mg/kg/day po Days 0-20, study day 0, listed as G-026887, 100 mg/kg/day): 47.6 mm3 and 100.9 mm3 and 90.8 mm3 (2×) and 111.6 mm3 and 68.8 mm3 and 57.6 mm3 and 62.5 mm3 and 84.7 mm3 and 50.6 mm3 and 210.8 mm3 and 117.2 mm3 and 139.4 mm3
Absolute tumor volume: (a*b*b)/2 (lung tumor xenografts; H327-2, LXFA 1041/9N4 Lung, adeno, 100 mg/kg/day po Days 0-20, study day 3, listed as G-026887, 100 mg/kg/day): 92.3 mm3 and 210.8 mm3 and 140.4 mm3 and 209.5 mm3 and 139.3 mm3 and 90.8 mm3 and 68.8 mm3 and 145.4 mm3 and 117.0 mm3 and 98.3 mm3 and 292.8 mm3 and 201.6 mm3 and 249.4 mm3
Absolute tumor volume: (a*b*b)/2 (lung tumor xenografts; H327-2, LXFA 1041/9N4 Lung, adeno, 100 mg/kg/day po Days 0-20, study day 7, listed as G-026887, 100 mg/kg/day): 215.1 mm3 and 332.8 mm3 and 272.8 mm3 and 291.2 mm3 and 258.8 mm3 and 147.9 mm3 and 212.5 mm3 and 294.4 mm3 and 197.0 mm3 and 126.0 mm3 and 470.6 mm3 and 344.4 mm3 and 392.9 mm3
Absolute tumor volume: (a*b*b)/2 (lung tumor xenografts; H327-2, LXFA 1041/9N4 Lung, adeno, 100 mg/kg/day po Days 0-20, study day 10, listed as G-026887, 100 mg/kg/day): 279.3 mm3 and 491.9 mm3 and 461.7 mm3 and 420.1 mm3 and 284.6 mm3 and 237.2 mm3 and 326.4 mm3 and 510.3 mm3 and 274.4 mm3 and 173.2 mm3 and 701.8 mm3 and 451.3 mm3 and 546.2 mm3
Absolute tumor volume: (a*b*b)/2 (lung tumor xenografts; H327-2, LXFA 1041/9N4 Lung, adeno, 100 mg/kg/day po Days 0-20, study day 14, listed as G-026887, 100 mg/kg/day): 458.8 mm3 and 819.3 mm3 and 538.6 mm3 and 575.5 mm3 and 510.9 mm3 and 401.6 mm3 and 672.9 mm3 and 1044.8 mm3 and 426.3 mm3 and 312.1 mm3 and 1321.4 mm3 and 613.8 mm3 and 1022.5 mm3
Absolute tumor volume: (a*b*b)/2 (lung tumor xenografts; H327-2, LXFA 1041/9N4 Lung, adeno, 100 mg/kg/day po Days 0-20, study day 17, listed as G-026887, 100 mg/kg/day): 653.0 mm3 and 1083.4 mm3 and 789.0 mm3 and 859.6 mm3 and 853.9 mm3 and 629.7 mm3 and 1197.5 mm3 and 1567.4 mm3 and 790.0 mm3 and 471.5 mm3 and 1975.9 mm3 and 974.7 mm3 and 1193.5 mm3
Absolute tumor volume: (a*b*b)/2 (lung tumor xenografts; H327-2, LXFA 1041/9N4 Lung, adeno, 100 mg/kg/day po Days 0-20, study day 20, listed as G-026887, 100 mg/kg/day): 854.4 mm3 and 1120.0 mm3 and 959.2 mm3 and 973.4 mm3 and 925.7 mm3 and 665.5 mm3 and 1422.1 mm3 and 1661.1 mm3 and 906.6 mm3 and 639.9 mm3 and 2047.5 mm3 and 1008.0 mm3 and 1366.9 mm3
Survival time (lung tumor xenografts; H327-5, LXFA 1041/9N4, 100 mg/kg/day po Day 0): >0 days
Absolute body weight, Median (lung tumor xenografts; [10]): 25.6 g
Absolute tumor volume: (a*b*b)/2, Median (lung tumor xenografts; [10]): 248.1 mm3
Relative body weight, Median (lung tumor xenografts; [10]): 100.0%
Relative tumor volume, Median (lung tumor xenografts; [10]): 100.0%
Relative body weight (lung tumor xenografts; H327-5, LXFA 1041/9N4, 100 mg/kg/day po Day 0, study day 0): 100.0%
Absolute body weight (lung tumor xenografts; [11]): 26.3 g and 23.5 g and 24.9 g and 31.1 g and 20.8 g and 27.4 g
Absolute tumor volume: (a*b*b)/2 (lung tumor xenografts; [11]): 256.0 mm3 and 219.0 mm3 and 423.2 mm3 and 441.1 mm3 and 166.5 mm3 and 240.1 mm3
Survival time (lung tumor xenografts; H327-6, LXFA 1041/9N4, 100 mg/kg/day po Day 0): >0 days
Absolute body weight, Median (lung tumor xenografts; [12]): 27.2 g
Absolute tumor volume: (a*b*b)/2, Median (lung tumor xenografts; [12]): 267.7 mm3
Absolute body weight (lung tumor xenografts; [13]): 27.9 g and 27.2 g and 25.2 g
Absolute tumor volume: (a*b*b)/2 (lung tumor xenografts; [13]): 409.1 mm3 and 250.5 mm3 and 267.7 mm3
time to tumor doubling / tumor growth ([1]; K-ras-mutant non-small cell lung tumors such as LXFA 1041 and LXFA 983): significantly accelerated growth
time to tumor doubling / tumor progression ([1]; MEXF 989, MEXF 276, and MEXF 355 tumors): statistically significant (P<0.05) delay in tumor progression
potency in biochemical enzyme assay (B-Raf^V600E): maintains effective potency
effect on pMEK levels ([2]; after serum stimulation): Inhibitory effects of GDC-0879 predominate
effect on pMEK levels / c-Raf ([2]; basal conditions): bell-shaped curve
ERK1/2 phosphorylation in tumors [3]: down-regulated ERK1/2 phosphorylation
Venus-tagged C-RAF membrane translocation [4]: co-localizes with CFP-KRAS on the plasma membrane
knocking down phospho-MEK levels [5]: more effective in knocking down phospho-MEK levels
